Reference: the NIST ThermoML archive (doi:10.1021/je200373q)

Experiment: xn = mol fraction of the nth substance listed
Details: 101 kPa, Liquid, Vibrating tube method

CCCCC [pentane] + CCCCCCCCC
mass density [kg/m3]
Details	x1 = 0.1034	x1 = 0.205	x1 = 0.3028	x1 = 0.4006	x1 = 0.5016	x1 = 0.5988	x1 = 0.6992	x1 = 0.7993	x1 = 0.8993
273.15 K	727.17	721.15	714.81	707.86	700	691.84	682.27	672.39	659.26
278.15 K	723.31	717.24	710.84	703.82	695.88	687.64	677.96	667.97	654.69
283.15 K	719.43	713.31	706.84	699.75	691.73	683.4	673.62	663.51	650.07
288.15 K	715.53	709.35	702.82	695.66	687.56	679.14	669.25	659.01	645.41
293.15 K	711.62	705.38	698.79	691.54	683.36	674.84	664.84	654.47	640.71
298.15 K	707.69	701.39	694.73	687.41	679.13	670.52	660.39	649.88	635.96
303.15 K	703.75	697.38	690.65	683.24	674.87	666.16	655.91	645.26	631.15
308.15 K	699.78	693.35	686.54	679.05	670.58	661.76	651.39	640.58	626.28
313.15 K	695.79	689.3	682.41	674.83	666.26	657.33	646.82	635.85	621.36
318.15 K	691.78	685.21	678.25	670.58	661.9	652.86	642.21	631.07	616.37
323.15 K	687.74	681.1	674.06	666.29	657.51	648.34	637.54	626.24	–
328.15 K	683.68	676.97	669.83	661.97	653.07	643.78	632.82	621.34	–
333.15 K	679.6	672.8	665.58	657.61	648.6	639.17	628.05	616.38	–
338.15 K	675.48	668.6	661.28	653.21	644.08	634.51	–	–	–
343.15 K	671.34	664.37	656.96	648.78	–	–	–	–	–
348.15 K	667.16	660.1	652.59	644.3	–	–	–	–	–
353.15 K	662.95	655.79	648.19	639.79	–	–	–	–	–
358.15 K	658.7	651.45	643.74	–	–	–	–	–	–
363.15 K	654.42	647.07	639.25	–	–	–	–	–	–
